# Reference: patent US20020052361A1, “Pharmaceutical compositions and method for the treatment of hypertension” (priority 1999, published 2002)
# Experiments:
# Format in all cases: in vivo, Sprague-Dawley rats
# chronically hypoxic rats [1] = test: Haemodynamic tests: pulmonary artery pressure in rats kept 14 days under normoxic or hypoxic conditions; settings: for PAP (pulmonary artery pressure): rats, 40 mg/kg/day for 14 days via i.p. osmotic mini-pump, mean ± SD
# Protocol: (§1) The test substance employed was (3S,2R′)-3-[1-(2′-(carboxy-4′-phenylbutyl)cyclopentane-1-carbonylamino]-2,3,4,5-tetrahydro-2-oxo-1H-1-benzazepine-1-acetic acid, which is representative of the substances of formula I which can be used in the invention. The dose of the substance administered was 40 mg/kg per day (sufficient to suppress the pressure feedback on big endothelin).
# (§2) The test animals used were Sprague-Dawley rats (260 to 310 g; n=6 to 10 per test group). In order to produce pulmonary hypertension, the animals were exposed to […] hypoxic conditions in a pressure chamber. For comparison, one control group was kept under normal air and another control group under hypoxic conditions.
# (§3) The animals were treated with the active substance or a vehicle by means of osmotic mini-pumps. The osmotic mini-pumps had been implanted intraperitoneally in the animals before they were kept in a pressure chamber 24 h later for a period of two weeks. There the animals were kept at normal pressure either under hypoxic conditions (10% O2) or in normal air. After two weeks the animals were prepared for the haemodynamic tests and the measurements were carried out.
# The animals were anaesthetised, then a ready-made cannula was inserted into the pulmonary artery in a conventional manner via the right jugular vein, atrium and ventricle. A catheter was inserted into the left jugular vein in order to allow intravenous administration of active substances. The left carotid artery was also fitted with a cannula for the purpose of measuring systemic blood pressure. Once the animals were conscious, pulmonary artery pressure (PAP) was recorded. The rats were then exposed to hypoxic conditions (10% O2) again for 10 minutes in a mini-chamber and the increase in pulmonary artery pressure was measured and also recorded. The effects of the test substance on PAP under normotoxic and hypoxic conditions are presented in Table 1 in comparison with the control tests. The given data are means±standard deviations and were statistically analysed by means of ANOVA.
# chronically hypoxic rats [2] = test: Effect on pulmonary artery remodelling: muscularisation of distal pulmonary vessels (histology, van Gieson staining)
# Protocol: as §1, §2, §3
# After the rats had been sacrificed, the lungs as well as the hearts were isolated. The lungs underwent histological examination, i.e. the degree of muscularisation of the distal pulmonary vessels was determined after “van Gieson” staining, by microscopy at 400× magnification. The effects of the test substance on pulmonary artery remodelling (i.e. on muscularisation of the distal pulmonary vessels) during two weeks' hypoxia are presented in Table 2 in comparison with the hypoxic control tests. The given data are means±standard deviations and were statistically analysed by means of ANOVA.
# chronically hypoxic rats [3] = test: Haemodynamic tests: systemic blood pressure via carotid artery cannula; settings: 40 mg/kg per day, result in words
# Protocol: as §1, §2
# The animals were treated with the active substance or a vehicle by means of osmotic mini-pumps. […]
# The animals were anaesthetised, then a ready-made cannula was inserted into the pulmonary artery in a conventional manner via the right jugular vein, atrium and ventricle. […] Once the animals were conscious, pulmonary artery pressure (PAP) was recorded. The rats were then exposed to hypoxic conditions (10% O2) again for 10 minutes in a mini-chamber and the increase in pulmonary artery pressure was measured and also recorded. […] The given data are means±standard deviations and were statistically analysed by means of ANOVA.
# chronically hypoxic rats [4] = test: Measurement of the antihypertrophic effect: right and left ventricular weights; settings: for Rt/LtHWt (ratio of right to left ventricular weight) / RtHWt (right ventricular weight) / RtHWt/BW (ratio of right ventricular weight to body weight): rats, 40 mg/kg/day for 14 days, mean ± SD
# Protocol: as §1, §2, §3
# After completion of the haemodynamic tests, the animals were sacrificed and their hearts were dissected out. The weights of the right and left ventricles were determined and calculated in relation to bodyweight. The effects of the test substance on the heart weights under normotoxic and hypoxic conditions are presented in Table 1 in comparison with the control tests. The given data are means±standard deviations and were statistically analysed by means of ANOVA.
# [5] = hypoxic rats, 40 mg/kg per day, result in words
# [6] = rats, 14 days' hypoxia, 40 mg/kg/day for 14 days, mean ± SD, n = 8
smiles,measurement,setting,value
O=C(O)CN1C(=O)[C@@H](NC(=O)C2(C[C@@H](CCc3ccccc3)C(=O)O)CCCC2)CCc2ccccc21 [Test substance],Effect on pulmonary artery pressure (PAP) in comparison with hypoxic control animals,chronically hypoxic rats [1]; [5],statistically significant decrease
same,PAP (pulmonary artery pressure),"chronically hypoxic rats [1]; 14-day hypoxia (10% O2), n=9",33.2 ± 1.2 mmHg
same,PAP (pulmonary artery pressure),"chronically hypoxic rats [1]; 14-day normoxia, n = 8",22.2 ± 1 mmHg
same,Effect on muscularisation of the distal pulmonary vessels,chronically hypoxic rats [2]; [5],statistically significantly reduced
same,Muscularised distal pulmonary vessels,chronically hypoxic rats [2]; [6],52 ± 5 %
same,Non-muscularised distal pulmonary vessels,chronically hypoxic rats [2]; [6],9 ± 3%
same,Partly muscularised distal pulmonary vessels,chronically hypoxic rats [2]; [6],39 ± 4 %
same,Effect on normal systemic blood pressure (hypotensive properties),chronically hypoxic rats [3],unaffected
same,Effect on ratio between right and left ventricular weights,chronically hypoxic rats [4]; [5],tendency towards a reduction
same,Effect on ratio between right heart weight and bodyweight,chronically hypoxic rats [4]; [5],tendency towards a reduction
same,Effect on right heart weight (antihypertrophic effect) in comparison with hypoxic control tests,chronically hypoxic rats [4]; [5],statistically significant reduction
same,Rt/LtHWt (ratio of right to left ventricular weight),"chronically hypoxic rats [4]; 14-day hypoxia (10% O2), n=9",0.40 ± 0.02 mg/mg
same,RtHWt (right ventricular weight),"chronically hypoxic rats [4]; 14-day hypoxia (10% O2), n=9",242 ± 6.4 mg
same,RtHWt/BW (ratio of right ventricular weight to body weight),"chronically hypoxic rats [4]; 14-day hypoxia (10% O2), n=9",0.87 ± 0.03 mg/g
same,Rt/LtHWt (ratio of right to left ventricular weight),"chronically hypoxic rats [4]; 14-day normoxia, n = 8",0.25 ± 0.01 mg/mg
same,RtHWt (right ventricular weight),"chronically hypoxic rats [4]; 14-day normoxia, n = 8",171 ± 10 mg
same,RtHWt/BW (ratio of right ventricular weight to body weight),"chronically hypoxic rats [4]; 14-day normoxia, n = 8",0.56 ± 0.03 mg/g
